Several values for one entry are separate records, joined by “and”; a condition that tells them apart may be missing. Equal values may be shown once. Where a name gives a salt, the structure may show the parent alone.
Key:
Type in all cases: biochemical
porcine pancreatic PLA2 [1] = molecular target: T1, porcine pancreatic PLA2 (Sus scrofa, UniProt P00592); test: MPLA2 assay: in vitro porcine pancreatic phospholipase A2, mixed micelle design, substrate 2 nM; details: for inhibition at 10 µg/mL: dose 10 μ/ml; for inhibition at 20 µg/mL: dose 20 μ/ml; for IC50 / % Inh.: subs. con. 2; for % Inh. / inhibition at 25 µg/mL: dose 25 μ/ml
T1 construct: purchased Sigma
Description: (§1) Phospholipase A2 activity was measured by a radiochemical assay in which labeled synthetic phosphatidylcholine substrate is converted by porcine pancreatic PLA2 to free radiolabeled arachidonate and lyso PC. Radiolabeled arachidonate is extracted from the reaction mixture and separated from unreacted substrate by column chromatography or TLC. Radioactivity (cpm) in samples is quantitated by liquid scintillation counting. Specific details are as follows:
(§2) Labeled substrate(1-stearyl-2-^3 H-arachidonylphosphatidylcholine; Amersham, sp. act. 84 (uCi/mmole, 0.025 to 0.2 uCi/assay tube and unlabeled substrates (Avanti), in sufficient quantity to give 20,000 cpm to 50,000 cpm and 10 μM to 1,000 μM final concentration/assay tube are dried under a stream of nitrogen. The PLA2 and mPLA2 assays utilized a […] substrate concentration. The mHPLA2 and HPLA2 assays (vida infra) utilized a 10 μM substrate concentration and the SmPLA2 assay utilized a substrate concentration ranging from 100 to 1000 μm. The substrate is then redissolved in 0.1M tris-HCl buffer, pH 9.0 containing 10 mM CaCl2 and 10 mM Na taurocholate detergent. The mixture is sonicated in a Kontes Sonifier to yield a homogeneous dispersion. The "mixed" micellar substrate is clear. An aliquot is reserved for a cpm count (total substrate). The total reaction volume is 500 μL; siliconized glassware or plasticware is used throughout. Enzyme (Sigma, sp. act.>690 U/mg protein and preferably 900 U/mg protein) is diluted 1:750 or 1:1000 in 0.1M tris-HCl buffer, pH 9.0 (without Ca^++ and detergent). Enzyme dilution depends on substrate concentration and required enzyme concentration.
(§3) The substrate in buffer is kept on ice until the reaction is started. The reaction is started by adding 10 μL of diluted enzyme solution to 490 μL of micellar substrate solution. Samples are incubated in a 37° C. water bath for 15 minutes with gentle mixing. The reaction is terminated by the addition of 100 μL of 1M fresh trichloroacetic acid (TCA) solution and chilling the tubes on ice for 30 minutes.
(§4) Samples (600 μL) are extracted with 3 ml CHCl3 /MeOH (2:1) for thin layer chromatography or in hexane/ether (9:1) for column chromatography. The phases are separated by gentle centrifugation at 700 rpm×5'. The organic phase is recovered.
(§5) Labeled arachidonate extracted with CHCl3 /MeOH is separated on silica gel G TLC plates (Analtech). Twenty μL of a 2 mg/ml internal standard solution of arachidonic acid (Sigma) is combined with 2-3 ml of the organic phase. The entire mixture is dried under nitrogen and redissolved in 50 μL of CHCl3 /MeOH (2:1). A 20 μL sample is counted in 10 ml of Beckman Redi-solv HP and spotted on silica gel G plates. The solvent system used to develop the plate is CHCl3 /MeOH/13.5N NH3 /H2 O (70:30:4:1). Plates are developed in a glass chamber for 1-11/2 hours, air dried, and the spots visualized in an iodine vapor chamber. Standards of phosphatidylcholine, lyso PC, and arachidonic acid (Sigma) are made as 2 mg/ml stocks in CHCl3 /MeOH (2:1) and spotted on plates. Spots corresponding to arachidonate and phospholipid are scraped and counted in 10 ml Beckman Redi-Solv HP scintillation fluid.
(§6) Samples are extracted with hexane/ether and the upper organic phase recovered. An aliquot is applied to a Silicar CC4 (Malincrodt) column. Columns are prepared using 1 ml of a 1:1 slurry of silicar CC4 in hexane/ether in a Pasteur pipet (approx. 2 cm height). Columns are rinsed with 500 μL of hexane/ether before adding the sample (300-600 μL) to the column. Columns are eluted with a total of 6 ml of hexane/ether. The 6 ml sample is counted in 10 ml of Beckman Redi-Solv HP scintillation fluid.
(§7) or the phospholipase A2 assay, compounds are prepared as 1 mg/ml stock solutions in MeOH and diluted appropriately in PBS. […]

porcine pancreatic PLA2 [2] = molecular target: T1, porcine pancreatic PLA2; test: MHPLA2 assay: in vitro porcine pancreatic phospholipase A2, mixed micelle design, [s]=10 μm; details: for inhibition at 10 µg/mL: dose 10 μ/ml; for inhibition at 20 µg/mL: dose 20 μ/ml
Description: as §1, §2, §3, §4, §5, §6, §7

porcine pancreatic PLA2 [3] = molecular target: T1, porcine pancreatic PLA2; test: PLA2 assay: in vitro porcine pancreatic phospholipase A2, preincubation of drug+enzyme, substrate 2 nM; details: preincubation, subs. con. 2; for inhibition at 10 µg/mL: dose 10 μ/ml; for inhibition at 20 µg/mL: dose 20 μ/ml; for IC50: read-out: IC50 (converted)
Description: as §1, §2, §3, §4, §5, §6
or the phospholipase A2 assay, compounds are prepared as 1 mg/ml stock solutions in MeOH and diluted appropriately in PBS.

[4] = subs. con. 10, read-out: % Inh.
[5] = dose 25 μ/ml, subs. con. 10, read-out: % Inh.
[6] = dose 25 μ/ml, subs. con. 10, read-out: % Inh. Avg.
[7] = subs. con. 2, read-out: % Inh. Avg.

T1 sequence (P00592 23-146): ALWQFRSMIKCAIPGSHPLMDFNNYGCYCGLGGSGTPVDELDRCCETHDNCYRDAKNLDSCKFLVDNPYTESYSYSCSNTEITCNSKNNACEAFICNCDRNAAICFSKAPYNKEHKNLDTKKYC

Row | SMILES | inhibition at 10 µg/mL (porcine pancreatic PLA2 [1]; subs. con. 2, read-out: % Inh.) [%] | inhibition at 20 µg/mL (porcine pancreatic PLA2 [1]; subs. con. 2, read-out: % Inh.) [%] | IC50 (porcine pancreatic PLA2 [1]) [µM] | inhibition at 10 µg/mL (porcine pancreatic PLA2 [2]; [4]) [%] | inhibition at 20 µg/mL (porcine pancreatic PLA2 [2]; subs. con. 10) [%] | inhibition at 25 µg/mL (porcine pancreatic PLA2 [2]; [5]) [%] | IC50 (porcine pancreatic PLA2 [2]; subs. con. 10, read-out: IC50 (converted)) | inhibition at 10 µg/mL (porcine pancreatic PLA2 [3]; read-out: % Inh.) [%] | inhibition at 10 µg/mL (porcine pancreatic PLA2 [3]; read-out: % Inh. Avg.) [%] | inhibition at 20 µg/mL (porcine pancreatic PLA2 [3]; read-out: % Inh.) [%] | IC50 (porcine pancreatic PLA2 [3]) [µM] | % Inh. (porcine pancreatic PLA2 [1]) | inhibition at 25 µg/mL (porcine pancreatic PLA2 [1]; subs. con. 2, read-out: % Inh.) [%] | inhibition at 10 µg/mL (porcine pancreatic PLA2 [2]; subs. con. 10, read-out: % Inh. Avg.) [%] | inhibition at 25 µg/mL (porcine pancreatic PLA2 [2]; [6]) [%] | IC50 (porcine pancreatic PLA2 [2]; subs. con. 10, read-out: IC50 Avg. (converted)) [µM] | inhibition at 25 µg/mL (porcine pancreatic PLA2 [1]; [7]) [%] | % Inh. (porcine pancreatic PLA2 [2]; dose 25 μ/ml, subs. con. 10)
1 | CCCCCCCCCCCCCCCCOCC(COP(=O)([O-])OCC[N+](C)(C)C)CP(=O)(OCC)OCC (stereo not drawn) | 36 | 60 | 27.3 | 18 | 44 | 45 | 91.3 µM and 265 µM | 71 | 74 | 81 | 8.12 |  |  |  |  |  |  | 
2 | CCCCCOCC(COP(=O)([O-])OCC[N+](C)(C)C)OP(=O)(O)OCCCCC (single isomer, unassigned; less polar) [3,5,8,10-Tetraoxa-4,9-diphosphapentadecan-1-aminium, 4,9-dihydroxy-N,N,N-trimethyl-7-[(pentyloxy)methyl]-, hydroxide, 4-(inner salt), 4,9-dioxide, less polar isomer] |  |  |  |  |  | 12 |  | 20 |  | 17 |  | STIM |  |  |  |  |  | 
3 | CCCCCOCC(COP(=O)([O-])OCC[N+](C)(C)C)OP(=O)(OC)OCCCCC (single isomer, unassigned; more polar) [3,5,8,10-Tetraoxa-4,9 diphosphapentadecan-1-aminium, 4-hydroxy-9-methoxy-N,N,N-trimethyl-7-[(pentyloxy)methyl]-, hydroxide, inner salt, 4,9-dioxide, more polar isomer] |  |  |  |  |  | 0 |  | 5 |  | 11 |  | STIM |  |  |  |  |  | 
4 | C=C(CC(COCCCCCCCCCCCCCCCC)COP(=O)([O-])OCC[N+](C)(C)C)C(F)(F)CCCCCCCCCCCCCCCC (stereo not drawn) [3,5,9-Trioxa-4-phosphapentacosan-1-aminium, 7-(3,3-difluoro-2-methylenenonadecyl)-4-hydroxy-N,N,N-trimethyl-, hydroxide, inner salt, 4-oxide] |  |  |  |  |  | 11 |  | 38 |  | 38 |  |  | 80 |  |  |  |  | 
5 | CCCCCCCCCCCCCCCCOCC(COP(=O)([O-])OCC[N+](C)(C)C)CC(=O)C(F)(F)CCCCCCCCCCCCCCCC (stereo not drawn) [3,5,9-Trioxa-4-phosphapentacosan-1-aminium, 7-(3,3-difluoro-2-oxononadecyl)-4-hydroxy-N,N,N-trimethyl-, hydroxide, inner salt, 4-oxide] | 88 | 89 |  | 0 | 9 | 8 |  | 38 |  | 41 |  |  | 80 |  |  |  |  | 
6 | CCCCCCCCCCCCCCCCOCC(COP(=O)([O-])OCC[N+](C)(C)C)OC(=O)CBr (stereo not drawn) [3,5,9-Trioxa-4-phosphapentacosan-1-aminium, 7-[(bromoacetyl)oxy]-4-hydroxy-N,N,N-trimethyl-, hydroxide, inner salt, 4-oxide] | 52 | 85 | 8.13 | 35 |  | 78 |  |  |  |  |  |  |  | 32 | 50 | 83 |  | 
7 | CCCCCCCCCCCCCCCCSCCCOP(=O)([O-])OCC[N+](C)(C)C [3,5-Dioxa-9-thia-4-phosphapentacosan-1-aminium, 4-hydroxy-N,N,N-trimethyl-,hydroxide, inner salt, 4-oxide] | 46 | 83 | 16 |  |  |  |  | 54 | 4.5 | 64 | 12.9 |  | 74 |  |  |  | 80 | STIM
8 | CCCCCCCCCCCCCCCCOCC(COP(=O)([O-])OCC[N+](C)(C)C)CC(O)C(F)(F)CCCCCCCCCCCCCCCC (stereo not drawn) [3,5.9-Trioxa-4-phosphapentacosan-1-aminium, 7-(3,3-difluoro-2-hydroxynonadecyl)-4-hydroxy-N,N,N-trimethyl-, hydroxide, inner salt, 4-oxide] |  |  |  |  |  | 11 |  | 45 |  | 49 |  |  | 82 |  |  |  |  | 
9 | CCCCCCCCCCCCCCCCOCC(CC=NO)COP(=O)([O-])OCC[N+](C)(C)C (stereo not drawn) [4-Hydroxy-7-[2-(hydroxyimino)ethyl]-N,N,N-trimethyl-3,5,9-trioxa-4-phosphaoentacosan-1-aminium, hydroxide, inner salt, 4-oxide] | 19 | 57 |  | 0 | 8 | 28 |  | 56 | 53 | 81 | 10.1 |  | 51 |  |  |  | 55 | 
10 | CCCCCCCCCCCCCCCC[S+]([O-])CCCOP(=O)([O-])OCC[N+](C)(C)C (stereo not drawn) [4-Hydroxy-N,N,N-trimethyl-3,5-dioxa-9-thia-4-phosphapentacosan-1-aminium, hydroxide, inner salt, 4.9-dioxide] |  |  |  |  |  | 16 |  | 59 | 61 | 82 | 12.5 |  | 68 |  |  |  | 71 | 
11 | CCCCCCCCCCCCCCCCOCC(COP(=O)([O-])OCC[N+](C)(C)C)CC1CO1 (stereo not drawn) [4-Hydroxy-N,N,N-trimethyl-7-(oxiranylmethyl)-3,5,9-trioxa-4-phosphapentacosan-1-aminium, hydroxide, inner salt, 4-oxide] |  |  |  |  |  |  |  | 71 | 74 | 88 | 4.6 |  | 85 |  |  |  |  | 
12 | CCCCCCCCCCCCCCCCOCC(O)(COP(=O)([O-])OCC[N+](C)(C)C)CC(N)CC (stereo not drawn) [7-(2-Aminobutyl)-4,7-dihydroxy-N,N,N-trimethyl-3,5,9-trioxa-4-phosphapentacosan-1-aminium, hydroxide, inner salt, 4-oxide] | 25 | 61 | 34.7 |  |  |  |  | 89 |  | 94 | 2.35 |  |  |  |  |  |  | 
13 | CCCCCCCCCCCCCCCCOCC(COP(=O)([O-])OCC[N+](C)(C)C)OC(=O)CCl (stereo not drawn) [7-[(Chloroacetyl)oxy]-4-hydroxy-N,N,N-trimethyl-3,5,9-trioxa-4-phosphapentacosan-1-aminium, hydroxide, inner salt, 4-oxide] | 46 | 72 | 17.4 | 27 |  |  |  |  |  |  |  |  |  |  | 3 |  |  | 
